Laboratory results from ChEMBL document CHEMBL5360523, “Ligand- and structure-based identification of novel CDK9 inhibitors for the potential treatment of leukemia” (Bioorg Med Chem, 2022).
Calls of active or inactive are those of the source. The rule behind the calls is not given here.

Key:
[1] = target: T1, Cyclin-dependent kinase 9 (Homo sapiens, UniProt P50750); assay: Inhibition of CDK9 (unknown origin) incubated for 10 mins
[2] = Stability in human plasma assessed as compound remaining measured upto 4 hrs by HPLC analysis; format: ADME, cell-free; conditions: read-out: Stability
[3] = Stability in rat liver microsomes assessed as compound remaining measured upto 3 hrs by HPLC analysis; format: ADME, Microsome; conditions: read-out: Stability
HeLa = assay: Antiproliferative activity against human HeLa cells assessed as inhibition of cell viability incubated for 48 hrs by CCK8 method; format: functional, cell-based
[4] = Stability of the compound in artificial gastric fluid assessed as compound remaining measured upto 8 hrs by HPLC analysis; format: ADME; conditions: read-out: Stability
HepG2 = assay: Antiproliferative activity against human HepG2 cells assessed as inhibition of cell viability incubated for 48 hrs by CCK8 method; format: functional, cell-based; conditions: HepG2, 48 h
[5] = target: T1, Cyclin-dependent kinase 9; assay: Inhibition of CDK9 (unknown origin) at 20 uM incubated for 10 mins relative to control
CNE-2 = assay: Antiproliferative activity against human CNE-2 cells assessed as inhibition of cell viability incubated for 48 hrs by CCK8 method; format: functional, cell-based; conditions: CNE-2, 48 h
MCF7 = assay: Antiproliferative activity against human MCF7 cells assessed as inhibition of cell viability incubated for 48 hrs by CCK8 method; format: functional, cell-based; conditions: MCF7, 48 h
[6] = Stability of the compound in artificial intestinal fluid assessed as compound remaining measured upto 8 hrs by HPLC analysis; format: ADME; conditions: read-out: Stability
HCT-116 = assay: Antiproliferative activity against human HCT-116 cells assessed as inhibition of cell viability incubated for 48 hrs by CCK8 method; format: functional, cell-based; conditions: HCT-116, 48 h
MOLM-13 [7] = assay: Antiproliferative activity against human MOLM-13 cells assessed as inhibition of cell viability incubated for 48 hrs by CCK8 method; format: functional, cell-based; conditions: MOLM-13, 48 h
MDA-MB-231 = assay: Antiproliferative activity against human MDA-MB-231 cells assessed as inhibition of cell viability incubated for 48 hrs by CCK8 method; format: functional, cell-based; conditions: MDA-MB-231, 48 h
A549 = assay: Antiproliferative activity against human A549 cells assessed as inhibition of cell viability incubated for 48 hrs by CCK8 method; format: functional, cell-based; conditions: A549, 48 h
MOLM-13 [8] = assay: Induction of apoptosis in human MOLM-13 cells assessed as early apoptotic cells at 10 uM incubated for 24 hrs by Annexin V-FITC and propidium iodide staining based flow cytometry analysis (reference value: 2.86%); format: functional
MOLM-13 [9] = assay: Induction of apoptosis in human MOLM-13 cells assessed as late apoptotic cells at 10 uM incubated for 24 hrs by Annexin V-FITC and propidium iodide staining based flow cytometry analysis (reference value: 3.65%); format: functional
MOLM-13 [10] = assay: Induction of apoptosis in human MOLM-13 cells assessed as viable cells at 10 uM incubated for 24 hrs by Annexin V-FITC and propidium iodide staining based flow cytometry analysis (reference value: 92.7%); format: functional; conditions: read-out: Activity
MOLM-13 [11] = assay: Induction of apoptosis in human MOLM-13 cells assessed as necrotic cells at 10 uM incubated for 24 hrs by Annexin V-FITC and propidium iodide staining based flow cytometry analysis (reference value: 0.84%); format: functional
MOLM-13 [12] = assay: Induction of apoptosis in human MOLM-13 cells assessed as late apoptotic cells at 5 uM incubated for 24 hrs by Annexin V-FITC and propidium iodide staining based flow cytometry analysis (reference value: 3.65%); format: functional
MOLM-13 [13] = assay: Induction of apoptosis in human MOLM-13 cells assessed as early apoptotic cells at 5 uM incubated for 24 hrs by Annexin V-FITC and propidium iodide staining based flow cytometry analysis (reference value: 2.86%); format: functional
[14] = target: T1, Cyclin-dependent kinase 9; assay: Inhibition of CDK9 in human MOLM-13 cells assessed as increase in cleaved PARP level at 10 to 25 uM incubated for 24 hrs by Western blot analysis; format: cell-based; conditions: dose 10-25 µM
[15] = target: T1, Cyclin-dependent kinase 9; assay: Inhibition of CDK9 in human MOLM-13 cells assessed as decrease in Mcl-1 expression incubated for 24 hrs by Western blot analysis; format: cell-based; conditions: dose 10-25 µM
MOLM-13 [16] = assay: Induction of apoptosis in human MOLM-13 cells assessed as necrotic cells at 5 uM incubated for 24 hrs by Annexin V-FITC and propidium iodide staining based flow cytometry analysis (reference value: 0.84%); format: functional
MOLM-13 [17] = assay: Induction of apoptosis in human MOLM-13 cells assessed as necrotic cells at 2.5 uM incubated for 24 hrs by Annexin V-FITC and propidium iodide staining based flow cytometry analysis (reference value: 0.84%); format: functional
MOLM-13 [18] = assay: Induction of apoptosis in human MOLM-13 cells assessed as early apoptotic cells at 2.5 uM incubated for 24 hrs by Annexin V-FITC and propidium iodide staining based flow cytometry analysis (reference value: 2.86%); format: functional
MOLM-13 [19] = assay: Induction of apoptosis in human MOLM-13 cells assessed as viable cells at 5 uM incubated for 24 hrs by Annexin V-FITC and propidium iodide staining based flow cytometry analysis (reference value: 92.7%); format: functional; conditions: read-out: Activity
MOLM-13 [20] = assay: Induction of apoptosis in human MOLM-13 cells assessed as viable cells at 2.5 uM incubated for 24 hrs by Annexin V-FITC and propidium iodide staining based flow cytometry analysis (reference value: 92.7%); format: functional; conditions: read-out: Activity
[21] = target: T1, Cyclin-dependent kinase 9; assay: Inhibition of CDK9 in human MOLM-13 cells assessed as suppression of p-RNAP II CTD (Ser2 residue) phosphorylation incubated for 24 hrs by Western blot analysis; format: cell-based; conditions: dose 10-25 µM
MOLM-13 [22] = assay: Induction of apoptosis in human MOLM-13 cells assessed as late apoptotic cells at 2.5 uM incubated for 24 hrs by Annexin V-FITC and propidium iodide staining based flow cytometry analysis (reference value: 3.65%); format: functional
MOLM-13 [23] = assay: Induction of apoptosis in human MOLM-13 cells incubated for 24 hrs by Annexin V-FITC and propidium iodide staining based flow cytometry analysis; format: functional, cell-based; conditions: dose 2.5-10 µM

T1 sequence (P50750 whole entry): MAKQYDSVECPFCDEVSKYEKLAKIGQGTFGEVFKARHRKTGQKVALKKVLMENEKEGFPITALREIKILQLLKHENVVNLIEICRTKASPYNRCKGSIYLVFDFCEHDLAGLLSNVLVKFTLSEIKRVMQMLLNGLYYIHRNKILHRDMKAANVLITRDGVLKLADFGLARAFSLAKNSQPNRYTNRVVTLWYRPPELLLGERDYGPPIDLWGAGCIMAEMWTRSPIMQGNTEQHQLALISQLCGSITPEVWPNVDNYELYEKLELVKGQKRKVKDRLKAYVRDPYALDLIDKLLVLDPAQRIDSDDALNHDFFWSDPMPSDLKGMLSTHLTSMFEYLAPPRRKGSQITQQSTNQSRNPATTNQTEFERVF

SMILES | IC50 [1] | remaining at 4 h [2] | remaining at 3 h [3] | IC50 (HeLa) | remaining at 8 h [4] | IC50 (HepG2) | inhibition [5] | IC50 (CNE-2) | IC50 (MCF7) | remaining at 8 h [6] | IC50 (HCT-116) | IC50 (MOLM-13 [7]) | IC50 (MDA-MB-231) | IC50 (A549) | further results
Nc1nc(NCCc2ccccc2)nc(-c2cc(Cl)ccc2O)n1 | 504 nM | > 90% | > 90% | 25.1 µM | > 90% | 29 µM | 92.2% | > 50 µM | 29 µM | > 90% | > 50 µM | 4.58 µM | 14.5 µM | 28.2 µM | –
CN1CC[C@H](c2c(O)cc(O)c3c(=O)cc(-c4ccccc4Cl)oc23)[C@H](O)C1 [ALVOCIDIB] | – | – | – | 0.15 µM | – | 0.56 µM | – | 0.12 µM | 0.71 µM | – | 0.03 µM | 0.07 µM | 0.06 µM | 0.1 µM | Activity (MOLM-13 [8]): 25.5%; Activity (MOLM-13 [9]): 7.81%; viability at 10 µM (MOLM-13 [10]): 44.5%; Activity (MOLM-13 [11]): 22.3%
O=C(NCCc1c[nH]c2ccc(Cl)cc12)c1cc(-c2cccnc2)n[nH]1 | – | – | – | 29.4 µM | – | 19.8 µM | 22.7% | 17.1 µM | 20.9 µM | – | 15.6 µM | 2.52 µM | 28.2 µM | > 50 µM | –
CCNc1nc(N)nc(-c2cc(Cl)ccc2O)n1 | 335 nM | – | – | 7.38 µM | – | 49.2 µM | 93.7% | 30.4 µM | 18.9 µM | – | 26.6 µM | 15.2 µM | 21.2 µM | > 50 µM | –
Nc1nc(Nc2ccccc2)nc(-c2cc(Cl)ccc2O)n1 | 295 nM | > 90% | > 90% | 2.53 µM | > 90% | > 50 µM | 88.4% | 34.5 µM | 23.5 µM | > 90% | 22.2 µM | 3.92 µM | 11.7 µM | > 50 µM | Activity (MOLM-13 [12]): 3.96%; Activity (MOLM-13 [13]): 3.97%; inhibition [14]: Active; inhibition [15]: Dose-Dependent Effect; Activity (MOLM-13 [16]): 1.12%; Activity (MOLM-13 [8]): 6.13%; Activity (MOLM-13 [9]): 5.43%; viability at 10 µM (MOLM-13 [10]): 87.1%; Activity (MOLM-13 [17]): 0.77%; Activity (MOLM-13 [18]): 3.2%; viability at 5 µM (MOLM-13 [19]): 90.9%; Activity (MOLM-13 [11]): 1.38%; viability at 2.5 µM (MOLM-13 [20]): 92.1%; inhibition [21]: Dose-Dependent Effect; Activity (MOLM-13 [22]): 3.88%; Activity (MOLM-13 [23]): Dose-Dependent Effect
O=C(Cn1cc(Br)c(=O)n(CC(=O)Nc2ccc(Br)cn2)c1=O)Nc1ccc(Br)cn1 | 219 nM | > 90% | > 90% | 6.61 µM | > 90% | > 50 µM | 76.4% | 28.3 µM | 6.14 µM | > 90% | 3.22 µM | 11.8 µM | 8.34 µM | 15.3 µM | –
CCCCNc1nc(N)nc(-c2cc(Cl)ccc2O)n1 | 214 nM | – | – | 13.7 µM | – | 40.9 µM | 93.6% | 17 µM | 11.3 µM | – | 27.2 µM | 13.5 µM | 16 µM | 19.2 µM | –
